Patent US20240294498A1, “FACTOR XIIA INHIBITORS” (Lunac Therapeutics Ltd, priority 2021, published 2024)
pKi: −log10 of the molar value.

Assays:
Type in all cases: biochemical
FXIIa = target: T1, FXIIa (Homo sapiens, UniProt P00748); test: Determination of Factor XIIa inhibition (chromogenic substrate S-2302); conditions: human FXIIa alpha, Ki category
T1 construct: FXIIa alpha
T1 sequence (P00748 373-615 limits assumed): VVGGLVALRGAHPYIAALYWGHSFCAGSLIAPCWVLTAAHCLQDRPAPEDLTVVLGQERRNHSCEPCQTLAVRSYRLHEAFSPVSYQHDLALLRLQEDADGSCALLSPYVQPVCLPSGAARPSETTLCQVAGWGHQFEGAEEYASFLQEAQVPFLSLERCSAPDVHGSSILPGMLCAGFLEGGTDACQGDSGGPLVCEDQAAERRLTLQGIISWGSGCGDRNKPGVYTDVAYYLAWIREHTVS
T1 sequence (P00748 20-372 partner limits assumed): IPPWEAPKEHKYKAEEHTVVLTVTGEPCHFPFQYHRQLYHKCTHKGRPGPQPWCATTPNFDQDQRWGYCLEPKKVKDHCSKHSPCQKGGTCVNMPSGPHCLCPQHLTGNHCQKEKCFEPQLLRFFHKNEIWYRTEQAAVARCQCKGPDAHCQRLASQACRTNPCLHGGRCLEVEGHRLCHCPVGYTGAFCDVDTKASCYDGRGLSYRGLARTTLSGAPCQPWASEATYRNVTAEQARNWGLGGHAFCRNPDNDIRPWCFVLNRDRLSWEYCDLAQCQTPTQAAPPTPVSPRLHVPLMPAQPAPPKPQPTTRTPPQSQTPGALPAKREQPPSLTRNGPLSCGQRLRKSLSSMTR
Protocol: (§1) The activities of the compounds of the invention have been determined in vitro using the following assays protocols for the screening of activity of FXIIa and other proteases. Each of these assays were performed in a purified system employing the use of chromogenic assays in microplate plate wells. Chromogenic peptide substrates mimicking natural protein substrates are attached via an amide bond to a chromogenic group. Paranitroaniline (pNA) is released from the peptide following catalyses by the proteolytic enzyme; the absorbance increases and can be monitored at 405 nm.
(§2) All compounds were dissolved in 100% (v/v) DMSO to a stock concentration of 10 mM, the highest concentration of compound used in each assay is 500 μM. The final concentrations of DMSO were 5% (v/v) in 50 mM Tris 137 mM NaCl pH 7.4. Where no test compound was added a final concentration of 5% DMSO was employed.
Factor XIIa activity was measured using a chromogenic substrate S-2302 (Chromogenix). Various concentrations of compound were incubated with 10 nM of FXIIa and incubated at 37° C. for 10 minutes in 50 mM Tris, 137 mM NaCl, pH 7.4, prior to the addition of the chromogenic substrate S-2302 at a concentration equal the to the experimentally derived KM. Kinetic readings at 405 nm were monitored every 12 secs for a total duration of 3 hours at 37° C. Gradients of initial rates were determined and employed to calculate IC50 values.
The activity of the compounds of the invention has been categorised based on the Ki values, the categories being “†”, “*”, “**” and “***”. […] The category “**” refers to compounds with a Ki value of 0.2 μM to 0.8 μM.
(§3) Ki═IC50/(1+[Substrate]/Km)
(§4) Where [Substrate] denotes the concentration of substrate used in the assay and Km is the determined value of each enzyme with its own substrate.

FXa = FXa (Homo sapiens, UniProt P00742); test: Determination of selectivity: FXa inhibition (chromogenic substrate S2765); conditions: fold selectivity for FXIIa over FXa (human); category
Sequence of FXa (P00742 235-488 limits assumed): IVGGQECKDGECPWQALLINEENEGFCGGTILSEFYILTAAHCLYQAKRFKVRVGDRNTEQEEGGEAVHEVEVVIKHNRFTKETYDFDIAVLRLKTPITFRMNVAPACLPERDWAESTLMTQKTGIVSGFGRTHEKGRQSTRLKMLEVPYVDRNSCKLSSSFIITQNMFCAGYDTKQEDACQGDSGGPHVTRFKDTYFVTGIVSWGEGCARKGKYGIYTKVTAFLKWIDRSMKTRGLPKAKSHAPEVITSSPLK
Sequence of FXa (P00742 41-179 partner limits assumed): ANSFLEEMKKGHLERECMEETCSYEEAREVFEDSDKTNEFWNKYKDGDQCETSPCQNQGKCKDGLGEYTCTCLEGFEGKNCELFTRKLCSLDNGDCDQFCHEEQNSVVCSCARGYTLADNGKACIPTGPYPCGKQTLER
Protocol: as §1, §2
(§5) To determine selectivity of test compounds, these test compounds were assayed for inhibitory activity against other serine proteases including FXa and thrombin. Essentially compounds at increasing concentrations were incubated with each enzyme: FXa (5 nM) and thrombin (5 nM), for 10 mins at 37° C. followed by the appropriate chromogenic substrate, S2765 (Chromogenix) and GPR (Bachem) respectively in 50 mM Tris, 137 mM NaCl, pH 7.4. Substrates were used at a concentration equal to the appropriate experimentally derived KM. Kinetic readings at 405 nm were monitored every 12 secs for a total duration of 3 hours at 37° C. Gradients of initial rates were determined and employed to calculate IC50 values. Values of IC50 were converted to Ki values based on the formula:
as §3, §4
The fold selectivity for FXIIa over FXa for the compounds of the invention has been categorised based on the fold selectivity values, the categories being “o”, “oo” and “ooo”. The category “o” refers to fold selectivity values less than 10 (e.g. a fold selectivity value of less than 10 and greater than 1). The category “oo” refers to a fold selectivity value of 10 to 100. The category “ooo” refers to fold selectivity values greater than 100.

thrombin = target: T2, thrombin (Homo sapiens, UniProt P00734); test: Determination of selectivity: thrombin inhibition (chromogenic substrate GPR); conditions: fold selectivity for FXIIa over thrombin (human); category
T2 construct: FXa (5 nM) and thrombin (5 nM)
Protocol: as §1, §2, §5, §3, §4
The fold selectivity for FXIIa over thrombin for the compounds of the invention has been categorised based on the fold selectivity values, the categories being “+”, “++” and “+++”. The category “+” refers to fold selectivity values less than 10 (e.g. a fold selectivity value of less than 10 and greater than 1). The category “++” refers to a fold selectivity value of 10 to 100. The category “+++” refers to fold selectivity values greater than 100.

| Structure (SMILES) | pKi (FXIIa) | FXa (human)/FXIIa alpha (human) (FXa) | Thrombin (human)/FXIIa alpha (human) (thrombin) |
| --- | --- | --- | --- |
| O=C(NCc1cc2cnccc2[nH]1)[C@@H]1C[C@H](C(F)(F)F)CN1C(=O)[C@@H]1NCCC[C@@H]1C(=O)N1CCCC1 [Example M05720, (2S,4S)-N-((1H-pyrrolo[3,2-c]pyridin-2-yl)methyl)-1-((2R,3S)-3-(pyrrolidine-1-carbonyl)piperidine-2-carbonyl)-4-(trifluoromethyl)pyrrolidine-2-carboxamide] | > 6.70 | ∘∘∘ | +++ (fold selectivity values greater than 100) |
| Cc1ccc(C[C@@H]2C[C@@H](C(=O)NCc3ccc4c(cnn4C)c3)N(C(=O)[C@@H]3NCCC[C@@H]3C(=O)N3CCCCC3)C2)cc1 [Example M05733, (2S,4R)-N-((1-methyl-1H-indazol-5-yl)methyl)-4-(4-methylbenzyl)-1-((2R,3S)-3-(piperidine-1-carbonyl)piperidine-2-carbonyl)pyrrolidine-2-carboxamide] | > 6.70 | ∘∘∘ | ++ (a fold selectivity value of 10 to 100) |
| Cc1ccc(C[C@@H]2C[C@@H](C(=O)NCc3ccc4c(cnn4C)c3)N(C(=O)[C@@H]3NCCC[C@@H]3C(=O)N3CCC[C@@H]3C(F)(F)F)C2)cc1 [Example M05747, (2S,4R)-N-((1-methyl-1H-indazol-5-yl)methyl)-4-(4-methylbenzyl)-1-((2R,3S)-3-((R)-2-(trifluoromethyl)pyrrolidine-1-carbonyl)piperidine-2-carbonyl)pyrrolidine-2-carboxamide] | > 6.70 | ∘∘∘ | +++ (fold selectivity values greater than 100) |
| Cc1ccc(C[C@@H]2C[C@@H](C(=O)NCc3ccc4c(cnn4C)c3)N(C(=O)[C@@H]3NCCC[C@@H]3C(=O)N(C)C)C2)cc1 [Example M05751, (2R,3S)-N,N-dimethyl-2-((2S,4R)-2-(((1-methyl-1H-indazol-5-yl)methyl)carbamoyl)-4-(4-methylbenzyl)pyrrlidine-1-carbonyl)piperidine-3-carboxamide] | 6.10 to 6.70 | ∘∘∘ | +++ (fold selectivity values greater than 100) |
| Cc1ccc(C[C@@H]2C[C@@H](C(=O)NCc3ccc4c(cnn4C)c3)N(C(=O)[C@@H]3NCCC[C@@H]3C(=O)N3CCNCC3)C2)cc1 [Example M05754, (2S,4R)-N-((1-methyl-1H-indazol-5-yl)methyl)-4-(4-methylbenzyl)-1-((2R,3S)-3-(piperazine-1-carbonyl)piperidine-2-carbonyl)pyrrolidine-2-carboxamide] | 6.10 to 6.70 | ∘∘∘ | +++ (fold selectivity values greater than 100) |
| Cc1ccc(C[C@@H]2C[C@@H](C(=O)NCc3ccc4c(cnn4C)c3)N(C(=O)[C@H]3[C@@H](C(=O)N4CCCC4)CCCN3C)C2)cc1 [Example M05757, (2S,4R)—N-[(1-methylindazol-5-yl)methyl]-1-[(2R,3S)-1-methyl-3-(pyrrolidine-1-carbonyl)piperidine-2-carbonyl]-4-(p-tolylmethyl)pyrrolidine-2-carboxamide] | > 6.70 | ∘∘∘ | +++ (fold selectivity values greater than 100) |
| Cc1ccc(C[C@@H]2C[C@@H](C(=O)NCc3ccc4c(cnn4C)c3)N(C(=O)[C@@H]3NCCC[C@@H]3C(=O)N3C4CCC3COC4)C2)cc1 [Example M05770, (2S,4R)-1-((2R,3S)-3-(3-oxa-8-azabicyclo[3.2.1]octane-8-carbonyl)piperidine-2-carbonyl)-N-((1-methyl-1H-indazol-5-yl)methyl)-4-(4-methylbenzyl)pyrrolidine-2-carboxamide] | 6.10 to 6.70 | ∘∘∘ | +++ (fold selectivity values greater than 100) |

The next lines start with results.

| pKi (FXIIa) | FXa (human)/FXIIa alpha (human) (FXa) | Structure (SMILES) | Thrombin (human)/FXIIa alpha (human) (thrombin) |
| --- | --- | --- | --- |
| 5.30 to 6.10 | ∘∘∘ | Cc1ccc(C[C@@H]2C[C@@H](C(=O)NCc3ccc4[nH]ncc4c3)N(C(=O)[C@@H]3NCCC[C@@H]3C(=O)N3CCCC3)C2)cc1 [Example M05748, (2S,4R)-N-((1H-indazol-5-yl)methyl)-4-(4-methylbenzyl)-1-((2R,3S)-3-(pyrrolidine-1-carbonyl)piperidine-2-carbonyl)pyrrolidine-2-carboxamide] | ++ (a fold selectivity value of 10 to 100) |
| > 6.70 | ∘∘∘ | Cc1ccc(C[C@@H]2C[C@@H](C(=O)NCc3ccc4c(cnn4C)c3)N(C(=O)[C@@H]3NCCC[C@@H]3C(=O)N(C)C3CC3)C2)cc1 [Example M05752, (2R,3S)-N-cyclopropyl-N-methyl-2-((2S,4R)-2-(((1-methyl-1H-indazol-5-yl)methyl)carbamoyl)-4-(4-methylbenyl)pyrrolidine-1-carbonyl)piperidine-3-carboxamide] | ++ (a fold selectivity value of 10 to 100) |
| 6.10 to 6.70 | ∘∘∘ | Cc1ccc(C[C@@H]2C[C@@H](C(=O)NCc3ccc4c(cnn4C)c3)N(C(=O)[C@@H]3NCCC[C@@H]3C(=O)N3CCOCC3)C2)cc1 [Example M05753, (2S,4R)—N-((1-methyl-1H-indazol-5-yl)methyl)-4-(4-methylbenzyl)-1-((2R,3S)-3-(morpholine-4-carbonyl)piperidine-2-carbonyl)pyrrolidine-2-carboxamide] | ++ (a fold selectivity value of 10 to 100) |
| > 6.70 | ∘∘∘ | Cc1ccc(C[C@@H]2C[C@@H](C(=O)NCC3Cc4ccncc4C3)N(C(=O)[C@@H]3NCCC[C@@H]3C(=O)N3CCCC3)C2)cc1 (stereo partly drawn) [Example M05764, (2S,4R)-N-((6,7-dihydro-5H-cyclopenta[c]pyridin-6-yl)methyl)-4-(4-methylbenzyl)-1-((2R,3S)-3-(pyrrolidine-1-carbonyl)piperidine-2-carbonyl)pyrrolidine-2-carboxamide] | +++ (fold selectivity values greater than 100) |
| > 6.70 | ∘∘∘ | Cc1ccc(C[C@@H]2C[C@@H](C(=O)NCc3ccc4c(cnn4C)c3)N(C(=O)[C@@H]3NCCC[C@@H]3C(=O)N3CCC4(CC4)C3)C2)cc1 [Example M05766, (2S,4R)-1-[(2R,3S)-3-(5-azaspiro[2.4]heptane-5-carbonyl)piperidine-2-carbonyl]-N-[(1-methylindazol-5-yl)methyl]-4-(p-tolylmethyl)pyrrolidine-2-carboxamide] | +++ (fold selectivity values greater than 100) |
